According to patent publication US4353919A, “Analgesic and antipyretic pharmaceutical compositions containing a benzothiazol-2(3H)-one” (Dr. Karl Thomae Gesellschaft mit beschrankter Haftung, priority 1980, dated 1982):

Key:
Assay type in all cases: in vivo
[1] = tested on: inflammation pain of the rat; experiment: Effect on the inflammation pain of the rat (Randall-Selitto, yeast-injected paw); conditions: male Chbb:THOM-rats, oral (esophageal tube), dose raising pain threshold by 50% vs controls
Experimental: The test arrangement corresponded to that indicated by RANDALL-SELITTO [Arch. Int. Pharmacodyn. 111, 409 (1957)]. Male Chbb:THOM-rats having body weights of from 100 to 130 grams received a subplantar injection of 0.1 ml of a 5% suspension of yeast cells in 5.55% glucose solution in a rear paw. At 11/2 and 21/4 hours, respectively, after injection of the phlogistic, the animals received various doses of the test substance as a trituration in 1% methyl cellulose (1 ml/100 g of animal) through an esophageal tube. Control animals received corresponding volumes of the vehicle.
Ninety and forty-five minutes, respectively, after application of the test substance (that is, three hours after the subplantar injection of the yeast suspension), the threshold pain was determined in the rat in terms of the […] of bearing pressure on a paw, based on the weight of the animals.
From the pain threshold, measured according to the different doses of the test substance, and with the linear regression analysis according to LINDER [Statistische Methoden, 4th ed., pp. 148-162, Birkhauser, Basel, 1964], and ED50 dose with the confidence limits according to FIELLER [Quart. J. Pharm. Pharmacol., 17, 117 (1944)] was determined. The ED50 dose is one in which the pain threshold rises by 50%, as compared to the controls.

[2] = tested on: body temperature of the rat; experiment: Effect on the body temperature of the rat (antipyretic activity); conditions: Chbb:THOM-rats, oral (esophageal tube), dose decreasing rectal body temperature by 1.5° C.
Experimental: The temperature-lowering activity, i.e. antipyretic activity, was tested by the observation of the temperature curve given by rectally measured body temperatures of partially immobilized Chbb:THOM-rats having body weights of between 125 and 150 grams. The body temperatures were measured by thermocouples inserted into rectums. The test substances were administered as a trituration in a 1% methyl cellulose in portions of 1.0 ml/100 gm of animal using an esophageal tube.
From the values for the average maximum decline of temperature, which were gained after the administration of the different doses of the test substance, and after a linear regression analysis according to LINDER, an ED-1.5° C. was calculated with the confidence limits according to FIELLER as the dose which decreases the body temperature by 1.5° C.

[3] = tested on: heat pain of the mouse; experiment: Effect on the heat sensitivity of the mouse (hot plate, 52° C.); conditions: male Chbb:NMRI (SPF)-mice, oral (esophageal tube), dose increasing time of reaction by 100%
Experimental: The test performed according to a modification of the method described by CHEN and BECKMAN [Science, 113, 631 (1951)] in male Chbb:NMRI (SPF)-mice with an average weight of 20 grams.
The test substances were administered as trituration in 1% methyl cellulose (0.1 ml/10 gm of mouse) by means of an esophageal tube. Before treatment with the test substance, the animals were twice put on the hot plate at an interval of 30 minutes, whereby their individual times of reaction were measured. After treatment with a test substance, the times of reaction of the animals were again measured in an interval of 30 minutes.
From the average maximum increase of the time of reaction obtained after treatment with different doses, and after linear regression analysis according to LINDER, an ED100 dose with the confidence limits according to FIELLER was calculated. The ED100 dose is one which increased the time of reaction by 100%.

[4] = Acute toxicity in mice; conditions: mouse, in vivo; Chbb:NMRI (SPF)-mice of both sexes, oral (esophageal tube), deaths within 14 days
Experimental: (§1) The acute toxicity was determined in Chbb:NMRI (SPF)-mice of both sexes, having an average body weight of 20 gm. The test compounds were administered as a trituration in 1% methyl cellulose (0.5 ml/10 gm of animal) by means of an esophageal tube. The calculation of the LD50 values was effected according to the method of LITCHFIELD and WILCOXON [J. Pharmacol. Exp. Ther. 96, 99 (1949)], based on the percentage of animals which died within 14 days after administration of different doses.

[5] = tested on: mice; experiment: Acute toxicity in mice; conditions: oral, mice, 14 days
Experimental: as §1

[6] = 0.75 h, After Forty-five Minutes

COc1ccc2sc(=O)[nH]c2c1 [A, 5-methoxy-benzothiazol-2(3H)-one]
ED50 [1, 6]: 90 mg/kg
ED50 ([1]; 1.5 h, After Ninety Minutes): 150 mg/kg
ED (-1.5 C) [2]: 58 mg/kg
ED100 [3]: 218 mg/kg
LD50 at 336 h [4]: 1600 mg/kg

O=c1[nH]c2ccc(F)cc2s1 [B, 6-fluoro-benzothiazol-2(3H)-one]
ED50 [1, 6]: 121 mg/kg
ED50 ([1]; 1.5 h, After Ninety Minutes): 76 mg/kg
ED (-1.5 C) [2]: 83 mg/kg
ED100 [3]: 165 mg/kg
LD50 at 336 h [4]: 1650 mg/kg

O=c1[nH]c2cccc(Cl)c2s1 [C, 7-chloro-benzothiazol-2(3H)-one]
ED50 [1, 6]: 106 mg/kg
ED50 ([1]; 1.5 h, After Ninety Minutes): 105 mg/kg
survival of animals after administration of this dose ([5]; 10000 mg/kg (footnote * of Table 5)): all 10 animals survived
LD50 at 336 h [4]: 10000 mg/kg

O=c1[nH]c2ccc(Cl)cc2s1 [D, 6-chloro-benzothiazol-2(3H)-one]
ED50 [1, 6]: 175 mg/kg
ED50 ([1]; 1.5 h, After Ninety Minutes): 129 mg/kg
ED (-1.5 C) [2]: 103 mg/kg

COc1cc2[nH]c(=O)sc2cc1OC [E, 5,6-dimethoxy-benzothiazol-2(3H)-one]
ED50 [1, 6]: 43 mg/kg
ED50 ([1]; 1.5 h, After Ninety Minutes): 40 mg/kg
ED (-1.5 C) [2]: 29 mg/kg
ED100 [3]: 92 mg/kg

Cc1cccc2sc(=O)[nH]c12 [F, 4-methyl-benzothiazol-2(3H)-one]
ED50 [1, 6]: 174 mg/kg
ED50 ([1]; 1.5 h, After Ninety Minutes): 202 mg/kg
ED (-1.5 C) [2]: 118 mg/kg
ED100 [3]: 113 mg/kg
animals died after administration of this dose ([5]; 8000 mg/kg (footnote ** of Table 5)): 4 out of 20 animals died
LD50 at 336 h [4]: 8000 mg/kg

Cc1ccc2sc(=O)[nH]c2c1 [G, 5-methyl-benzothiazol-2(3H)-one]
ED50 [1, 6]: 103 mg/kg
ED50 ([1]; 1.5 h, After Ninety Minutes): 97 mg/kg
ED (-1.5 C) [2]: 37 mg/kg
ED100 [3]: 178 mg/kg
LD50 at 336 h [4]: 2650 mg/kg

O=c1[nH]c2c(Cl)cccc2s1 [H, 4-chloro-benzothiazol-2(3H)-one]
ED50 [1, 6]: 24 mg/kg
ED50 ([1]; 1.5 h, After Ninety Minutes): 23 mg/kg
ED (-1.5 C) [2]: 16 mg/kg
ED100 [3]: 125 mg/kg
